A short description of data set [1]: Human Hepatocyte Intrinsic Clearance Assay. To be noted: human, cryopreserved human hepatocytes pooled from 20 donors.
Method: (§4) Cryopreserved human hepatocytes pooled from 20 donors (Celsis-In Vitro Technologies, Baltimore, Md.) were used to determine the intrinsic clearance of the Example compounds. […] At 0, 5, 15, 30, 60 and 90 minutes, aliquots of incubation mixture were removed from the incubator, and quenched with acetonitrile containing 0.1% (v/v) formic acid and internal standard (7-hydroxy-4-trifluoromethylcoumarin). Samples were then centrifuged at 5700 rpm (6100 g) at 4° C. for 10 minutes. Supernatants were transferred to a sample plate, mixed with equal volume of water containing 0.1% formic acid, and analyzed using LC-MS/MS.
(§5) The LC-MS/MS system for sample analysis consisted of a reverse phase UHPLC (Shimadzu Model Nexera LC-30AD, Shimadzu Scientific Instruments, Inc, Columbia, Md.) interfaced with an API4000 triple quadruple mass spectrometer operating in negative ion mode (Applied Biosystems, Inc., Foster City, Calif.). Chromatographic separation was achieved using a Phenomenex Kinetex Luna C18 column (Phenomenex, Torrance, Calif.) (2×50 mm, 2.6 μm) maintained at 55° C. with a mobile phase flow rate of 1.2 mL/min. The mobile phase consisted of 0.1% formic acid in water (A) and 0.1% formic acid in acetonitrile (B).
For data set [2], the system named is Cryopreserved human hepatocytes. The data set is described as follows: Human Hepatocyte Intrinsic Clearance Assay. Particulars: for human hepatocyte clearance (comparison): comparison between Examples, in words.
Method: as §4, §5
The next data set deals with CYP3A4. Particulars: human, 48 h; for CYP3A4 mRNA induction: hepatocytes. From the text: (§1) Human Hepatocyte CYP1A2, CYP2B6, and CYP3A4 Induction Assay
(§2) Materials. […] Insulin-transferrin-selenium supplement (ITS), penicillin-streptomycin-L-glutamine supplement (PSG), fetal bovine serum (FBS), phosphate-buffered saline (PBS), cryopreserved hepatocyte recovery medium (CHRM), and three individual-donor lots of cryopreserved adult human hepatocytes were obtained from Life Technologies (Grand Island, N.Y.). Collagen I-precoated 24-well plates and hydroxybupropion were acquired from Becton Dickinson Labware (Bedford, Mass.). Branched DNA (b-DNA) probe sets for human CYP1A2, CYP2B6, CYP3A4, and 18S rRNA and the Panomics Discovery XL Kit were purchased from Affymetrix Inc. (Santa Clara, Calif.).
In vitro Methods. […] Individual lots were plated in collagen-coated 24-well plates with approximately 0.38×10^6 cells/well. […] After the attachment period, the plating medium and unattached cells were removed by aspiration and 37° C. HMM was added to each well (0.5 mL/well), and the cells were incubated overnight. On Day 2, the medium was aspirated and fresh 37° C. HMM was reapplied to the cells for an overnight acclimation period. […] The Example compounds to be tested were prepared in DMSO stock solutions resulting in final incubation concentrations of 0.1% DMSO. Example compound treatment was maintained for a total of 48 hours. On Day 5, the medium was aspirated, and the hepatocytes were gently washed one time with KHB (37° C., pH 7.4). The KHB was removed, and a second application of KHB was administered (0.5 mL/well). The hepatocytes were placed back into the incubator and allowed to acclimate to the KHB for 10 minutes. P450 enzyme activities were subsequently determined by the addition of marker substrates phenacetin (100 μM, CYP1A2 probe substrate, 30-minute incubation) bupropion hydrochloride (100 μM, CYP2B6 probe substrate, 20-minute incubation), and testosterone (200 μM, CYP3A4 probe substrate, 14-minute incubation) which were dissolved in KHB (37° C., pH 7.4, 0.5 mL/well). After the substrate incubation periods, the buffers were collected and stored at −80° C. until analyzed. Hepatocytes used for mRNA analysis were washed once in PBS (0.5 mL/well, 25° C., containing calcium and magnesium) and protocol-prepared b-DNA lysis buffer was added to each well (0.5 mL/well). The hepatocytes were lysed by gently pipetting the lysis buffer up and down five times, and the plates were stored at −80° C. until analysis.
P450 mRNA Analysis. CYP1A2, CYP2B6, and CYP3A4 mRNA content was determined with branched DNA (b-DNA) signal amplification technology using the Panomics Discover XL Kit with assays performed according to the manufacturer's instructions. b-DNA probe sets containing capture extender, label extender, and blocking probes for human CYP1A2, CYP2B6, CYP3A4, and 18S rRNA were purchased from Affymetrix Inc. Plate washing steps were performed on an Elx405 automated microplate washer (BioTek Instruments Inc., Winooski, Vt.), and luminescence was analyzed on a Luminoskan Ascent microplate luminometer (Thermo Lab Systems, Helsinki, Finland). P450 mRNA levels were normalized to the mRNA levels of the housekeeping gene 18S rRNA.
(§3) Data Reporting. For each P450 isoform for mRNA analysis, fold increases over vehicle control (with vehicle control set to 1.0) were calculated for positive controls and each treatment group for the Example compounds.

In the next data set the test system is CYP1A2, CYP2B6 or CYP3A4. Nature of the data set: Human Hepatocyte CYP1A2, CYP2B6, and CYP3A4 Induction Assay (summary). The data set is classed as in vitro ADME. To be noted: human hepatocytes, mRNA.
From the text: as §1, §2
In vitro Methods. […] Individual lots were plated in collagen-coated 24-well plates with approximately 0.38×10^6 cells/well. […] After the attachment period, the plating medium and unattached cells were removed by aspiration and 37° C. HMM was added to each well (0.5 mL/well), and the cells were incubated overnight. On Day 2, the medium was aspirated and fresh 37° C. HMM was reapplied to the cells for an overnight acclimation period. […] The Example compounds to be tested were prepared in DMSO stock solutions resulting in final incubation concentrations of 0.1% DMSO. Example compound treatment was maintained for a total of 48 hours. […] P450 enzyme activities were subsequently determined by the addition of marker substrates phenacetin (100 μM, CYP1A2 probe substrate, 30-minute incubation) bupropion hydrochloride (100 μM, CYP2B6 probe substrate, 20-minute incubation), and testosterone (200 μM, CYP3A4 probe substrate, 14-minute incubation) which were dissolved in KHB (37° C., pH 7.4, 0.5 mL/well). After the substrate incubation periods, the buffers were collected and stored at −80° C. until analyzed. […]
as §3

Each structure is given as a SMILES string. Entries after “also recorded” stand apart in the source; their conditions may differ. Where two headings read alike, the source gives them in different places.

Broadly, the hepatocyte CLint is the rate of metabolic loss divided by the concentration. In data set [1], `CC(C)(C)S(=O)(=O)C[C@H](C1CC1)N1C(=O)[C@@](C)(CC(N)=O)C[C@H](c2cccc(Cl)c2)[C@H]1c1ccc(Cl)cc1` [Example 2, 2-((3R,5R,6S)-1-((S)-2-(tert-Butylsulfonyl)-1-cyclopropylethyl)-5-(3-chlorophenyl)-6-(4-chlorophenyl)-3-methyl-2-oxopiperidin-3-yl)acetamide] gave a hepatocyte CLint at 500 nM of 26 µL/min/1e6 cells. For the same compound, in data set [2], the “human hepatocyte clearance (comparison)” value is given as “hepatocyte clearance increases”.
For `CC(C)(C)S(=O)(=O)C[C@H](C1CC1)N1C(=O)[C@@](C)(CC(=O)Nc2ccccc2)C[C@H](c2cccc(Cl)c2)[C@H]1c1ccc(Cl)cc1` [Example 3, 2-((3R,5R,6S)-1-((S)-2-(tert-Butylsulfonyl)-1-cyclopropylethyl)-5-(3-chlorophenyl)-6-(4-chlorophenyl)-3-methyl-2-oxopiperidin-3-yl)-N-phenylacetamide], in the data set with CYP3A4 (0.1 μM), the “mRNA % of Positive Control (Donor One)” value stood at 1.71%, the “mRNA % of Positive Control (Donor Three)” value was 0.15% and the “mRNA % of Positive Control (Donor Two)” value amounted to 4.95%. Also, in the data set with CYP3A4 (1 μM), the “mRNA % of Positive Control (Donor One)” value came to 17.15%, the “mRNA % of Positive Control (Donor Three)” value is recorded as 3.21% and the “mRNA % of Positive Control (Donor Two)” value is reported as 10.38%. In the data set with CYP3A4 (10 μM), the “mRNA % of Positive Control (Donor One)” value came out at 37.77%, the “mRNA % of Positive Control (Donor Three)” value turned out to be 37.60% and the “mRNA % of Positive Control (Donor Two)” value is 45.78%. In addition, the “CYP3A4 mRNA induction” value with CYP3A4 is recorded as “exhibit CYP3A4 mRNA induction”. In the data set on CYP1A2, CYP2B6 or CYP3A4, the “Induction Assay Summary” value is recorded as “CYP3A4”. In addition, the hepatocyte CLint at 500 nM in data set [1] came to 28 µL/min/1e6 cells. Also, in data set [2], the “human hepatocyte clearance (comparison)” value is recorded as “further increases”.
On to `CC(C)(C)S(=O)(=O)C[C@H](C1CC1)N1C(=O)[C@@](C)(CC(=O)O)C[C@H](c2cccc(Cl)c2)[C@H]1c1ccc(Cl)c(F)c1` [Example 4, 2-((3R,5R,6S)-1-((S)-2-(tert-Butylsulfonyl)-1-cyclopropylethyl)-6-(4-chloro-3-fluorophenyl)-5-(3-chlorophenyl)-3-methyl-2-oxopiperidin-3-yl)acetic acid], for which, in the data set with CYP3A4 (0.1 μM), the “mRNA % of Positive Control (Donor One)” value amounted to 1.62%, the “mRNA % of Positive Control (Donor Three)” value is given as 0.42% and the “mRNA % of Positive Control (Donor Two)” value is listed as 2.30%. In addition, in the data set with CYP3A4 (1 μM), the “mRNA % of Positive Control (Donor One)” value is listed as 2.96%, the “mRNA % of Positive Control (Donor Three)” value is 0.47% and the “mRNA % of Positive Control (Donor Two)” value was determined as 7.29%. Further, in the data set on CYP3A4 (10 μM), the “mRNA % of Positive Control (Donor One)” value is on record as 10.14%, the “mRNA % of Positive Control (Donor Three)” value worked out at 3.07% and the “mRNA % of Positive Control (Donor Two)” value is 12.51%. Moreover, the “Induction Assay Summary” value with CYP1A2, CYP2B6 or CYP3A4 is listed as “None”. In addition, the hepatocyte CLint at 500 nM in data set [1] stood at 26 µL/min/1e6 cells. In addition, the “human hepatocyte clearance (comparison)” value in data set [2] is recorded as “higher human hepatocyte clearance than the compound of Example 1”.
Take `COc1cc(NC(=O)C[C@@]2(C)C[C@H](c3cccc(Cl)c3)[C@@H](c3ccc(Cl)c(F)c3)N([C@H](CS(=O)(=O)C(C)(C)C)C3CC3)C2=O)ccc1C(=O)O` [Example 5, 4-(2-((3R,5R,6S)-1-((S)-2-(tert-Butylsulfonyl)-1-cyclopropylethyl)-6-(4-chloro-3-fluorophenyl)-5-(3-chlorophenyl)-3-methyl-2-oxopiperidin-3-yl)acetamido)-2-methoxybenzoic acid]: the “mRNA % of Positive Control (one donor)” value in the data set on CYP3A4 (0.1 μM) is reported as −1.49%; in the data set on CYP3A4 (1 μM) it was 0.34%; with CYP3A4 (10 μM), 0.98%. In the data set on CYP3A4, the “CYP3A4 mRNA induction” value is “does not show CYP3A4 mRNA induction”. Also, the “Induction Assay Summary” value in the data set with CYP1A2, CYP2B6 or CYP3A4 is “None”. In data set [1], this compound gave a hepatocyte CLint at 500 nM of 1.45 µL/min/1e6 cells. The “Human hepatocyte CLint assay (μL/min/10^6 cells)” value in data set [2] (500 nM, pooled human hepatocytes 1 million cells/mL) was determined as 1.45 μL/min/10^6 cells. Further, in data set [2], the “human hepatocyte clearance (comparison)” value is “lower human hepatocyte clearance than either of the compounds of Examples 1 or 4; also recorded: lower human hepatocyte clearance than any of Examples 1 to 4”.

For the origin of these results see patent US8952036B2, “Benzoic acid derivative MDM2 inhibitor for the treatment of cancer” (Amgen Inc., priority 2013, dated 2015).
